Key:
Format in all cases: biochemical
BMX/ETK = molecular target: T1, BMX/ETK (Homo sapiens, UniProt P51813); assay: HotSpot kinase selectivity profiling, BMX/ETK
T1 construct: purchased Reaction Biology Corporation (contract assay)
T1 sequence (P51813 1-675): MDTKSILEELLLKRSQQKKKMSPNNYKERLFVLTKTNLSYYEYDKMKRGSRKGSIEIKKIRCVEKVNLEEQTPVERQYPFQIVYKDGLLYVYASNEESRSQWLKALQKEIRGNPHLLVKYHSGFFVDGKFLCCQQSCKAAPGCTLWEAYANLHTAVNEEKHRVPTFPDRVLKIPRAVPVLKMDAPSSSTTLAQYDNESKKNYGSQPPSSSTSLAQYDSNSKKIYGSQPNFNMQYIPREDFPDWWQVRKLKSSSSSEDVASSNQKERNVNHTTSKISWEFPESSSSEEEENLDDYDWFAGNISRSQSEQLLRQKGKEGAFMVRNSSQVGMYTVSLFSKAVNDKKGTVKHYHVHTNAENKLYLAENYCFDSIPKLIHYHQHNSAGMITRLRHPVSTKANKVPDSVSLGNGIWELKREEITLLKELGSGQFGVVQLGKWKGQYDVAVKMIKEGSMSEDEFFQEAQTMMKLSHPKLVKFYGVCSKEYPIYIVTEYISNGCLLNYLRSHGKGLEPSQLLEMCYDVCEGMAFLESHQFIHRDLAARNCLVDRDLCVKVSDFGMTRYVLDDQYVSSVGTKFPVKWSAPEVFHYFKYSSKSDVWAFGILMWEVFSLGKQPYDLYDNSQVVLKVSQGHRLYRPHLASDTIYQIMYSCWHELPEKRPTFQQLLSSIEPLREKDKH

TEC = molecular target: T2, TEC (Homo sapiens, UniProt P42680); assay: HotSpot kinase selectivity profiling, TEC
T2 construct: purchased Reaction Biology Corporation (contract assay)
T2 sequence (P42680 1-631): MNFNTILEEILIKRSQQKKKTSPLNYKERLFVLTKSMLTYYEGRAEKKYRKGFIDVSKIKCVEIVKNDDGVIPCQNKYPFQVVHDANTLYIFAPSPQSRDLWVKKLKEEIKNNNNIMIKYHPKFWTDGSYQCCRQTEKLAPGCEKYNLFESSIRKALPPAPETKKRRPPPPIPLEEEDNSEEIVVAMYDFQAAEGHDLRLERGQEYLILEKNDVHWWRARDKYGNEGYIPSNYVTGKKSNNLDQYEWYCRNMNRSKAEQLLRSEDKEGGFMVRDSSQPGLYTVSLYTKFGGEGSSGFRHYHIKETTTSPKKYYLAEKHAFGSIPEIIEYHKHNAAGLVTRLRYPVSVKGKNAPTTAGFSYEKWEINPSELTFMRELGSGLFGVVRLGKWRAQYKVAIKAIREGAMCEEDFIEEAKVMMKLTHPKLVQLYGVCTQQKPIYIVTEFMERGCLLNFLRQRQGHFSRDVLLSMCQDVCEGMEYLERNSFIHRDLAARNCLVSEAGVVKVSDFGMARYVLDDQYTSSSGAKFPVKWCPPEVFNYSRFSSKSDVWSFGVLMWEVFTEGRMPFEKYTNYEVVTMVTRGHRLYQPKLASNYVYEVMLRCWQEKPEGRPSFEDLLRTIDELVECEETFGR

TXK = molecular target: T3, TXK (Homo sapiens, UniProt P42681); assay: HotSpot kinase selectivity profiling, TXK
T3 construct: purchased Reaction Biology Corporation (contract assay)
T3 sequence (P42681 1-527): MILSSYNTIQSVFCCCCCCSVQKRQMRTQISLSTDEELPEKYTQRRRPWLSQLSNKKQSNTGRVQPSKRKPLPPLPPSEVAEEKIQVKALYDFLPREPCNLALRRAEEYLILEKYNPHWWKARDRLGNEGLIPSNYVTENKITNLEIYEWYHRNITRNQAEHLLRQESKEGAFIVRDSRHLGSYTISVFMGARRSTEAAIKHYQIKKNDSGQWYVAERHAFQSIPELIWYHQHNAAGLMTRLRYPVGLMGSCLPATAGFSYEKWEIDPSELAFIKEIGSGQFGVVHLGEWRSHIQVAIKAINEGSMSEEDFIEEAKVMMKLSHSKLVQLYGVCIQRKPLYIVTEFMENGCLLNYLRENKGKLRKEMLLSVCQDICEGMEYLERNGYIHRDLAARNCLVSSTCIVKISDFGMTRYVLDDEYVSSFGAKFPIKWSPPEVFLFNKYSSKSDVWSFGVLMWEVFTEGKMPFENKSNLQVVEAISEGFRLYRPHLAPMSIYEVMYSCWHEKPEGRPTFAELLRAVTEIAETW

JAK3 = molecular target: T4, JAK3 (Homo sapiens, UniProt P52333); assay: HotSpot kinase selectivity profiling, JAK3
T4 construct: purchased Reaction Biology Corporation (contract assay)
T4 sequence (P52333 1-1124): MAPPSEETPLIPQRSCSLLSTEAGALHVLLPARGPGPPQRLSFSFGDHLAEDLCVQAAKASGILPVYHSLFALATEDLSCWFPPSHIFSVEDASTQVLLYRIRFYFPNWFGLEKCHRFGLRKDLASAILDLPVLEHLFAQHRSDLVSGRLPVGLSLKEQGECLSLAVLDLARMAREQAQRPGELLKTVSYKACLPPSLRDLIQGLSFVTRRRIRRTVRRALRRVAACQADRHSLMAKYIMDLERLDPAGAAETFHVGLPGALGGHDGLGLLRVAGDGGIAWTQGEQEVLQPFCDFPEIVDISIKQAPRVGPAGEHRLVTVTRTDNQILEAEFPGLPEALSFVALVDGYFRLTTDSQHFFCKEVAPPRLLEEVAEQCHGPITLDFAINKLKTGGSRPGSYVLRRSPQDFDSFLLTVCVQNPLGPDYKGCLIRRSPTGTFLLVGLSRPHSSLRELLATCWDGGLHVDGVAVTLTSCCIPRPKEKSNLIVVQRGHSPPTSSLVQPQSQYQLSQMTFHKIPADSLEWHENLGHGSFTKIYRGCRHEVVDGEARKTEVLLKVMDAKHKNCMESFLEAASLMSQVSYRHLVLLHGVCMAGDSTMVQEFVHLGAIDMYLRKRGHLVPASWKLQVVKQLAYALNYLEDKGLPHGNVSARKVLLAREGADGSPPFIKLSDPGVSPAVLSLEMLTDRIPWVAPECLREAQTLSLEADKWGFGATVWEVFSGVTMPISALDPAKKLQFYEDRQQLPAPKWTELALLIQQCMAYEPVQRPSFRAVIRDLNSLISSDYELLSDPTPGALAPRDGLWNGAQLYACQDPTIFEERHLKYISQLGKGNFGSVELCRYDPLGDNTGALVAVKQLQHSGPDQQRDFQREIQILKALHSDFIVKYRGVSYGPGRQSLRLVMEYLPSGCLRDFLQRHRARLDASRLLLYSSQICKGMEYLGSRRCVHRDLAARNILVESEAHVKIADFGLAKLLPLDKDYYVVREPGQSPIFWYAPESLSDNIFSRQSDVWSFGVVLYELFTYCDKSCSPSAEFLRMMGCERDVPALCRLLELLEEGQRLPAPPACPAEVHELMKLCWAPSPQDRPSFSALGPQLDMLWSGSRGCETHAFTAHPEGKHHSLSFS

Row | SMILES | inhibition at 20 µM (BMX/ETK) | inhibition at 20 µM (TEC) | inhibition at 20 µM (TXK) | inhibition at 20 µM (JAK3)
1 | C=CC(=O)Oc1cccc(Oc2cnc(N)c(N3CCc4cc(OCc5ccccc5)ccc4C3)c2)c1 [Compound 18d, Acrylic Acid 3-[6-Amino-5-(6-benzyloxy-3,4-dihydro-1H-isoquinolin-2-yl)pyridin-3-yloxy]phenyl Ester] | 95.5 ± 0.1% | 71.3 ± 1% | 37.5 ± 3.3% | 46.2 ± 4.2%
2 | C=CC(=O)Oc1ccccc1Oc1cnc(N)c(N2CCc3cc(OCc4ccccc4)ccc3C2)c1 [Compound 17d, Acrylic Acid 2-[6-Amino-5-(6-benzyloxy-3,4-dihydro-1H-isoquinolin-2-yl)pyridin-3-yloxy]phenyl Ester] | 98.7 ± 0.6% | 84.1 ± 0.2% | 88.8 ± 0.1% | 64.8 ± 0.3%
3 | C=CC(=O)Oc1cccc(Oc2cnc(N)c(N3CCc4cc(OCc5ccc(OC)cc5)ccc4C3)c2)c1 [Compound 18g, Acrylic Acid 3-{6-Amino-5-[6-(4-methoxybenzyloxy)-3,4-dihydro-1H-isoquinolin-2-yl]pyridin-3-yloxy}phenyl Ester] | 96 ± 0.1% | 66.4 ± 0.9% | 49.7 ± 2.5% | 77.1 ± 3%

From publication PMC7663149, “Discovery of 5-Phenoxy-2-aminopyridine Derivatives as Potent and Selective Irreversible Inhibitors of Bruton’s Tyrosine Kinase” (International Journal of Molecular Sciences, 2020)
